These results are taken from patent publication US12043827B2, “Compositions, systems, and methods for base diversification” (Pairwise Plants Services, Inc., priority 2020, dated 2024).

Assay type in all cases: cell-based
In data set [1] the target is T1, APE1 (Homo sapiens, UniProt P27695).
T1 construct: endogenous in cells; host or cells: HEK293T
Nature of the data set: APE1 inhibitor effect on base diversification and indels, AID or pmCDA1 fused to Cas9 nickase (D10A), HTS in HEK293T cells. As to conditions: 100 μM and 200 μM, 3 d. The method, then: APE1 was inhibited by using CRT0044876 (Scheme 1), which is a potent and well-known APE1 inhibitor.
To ascertain whether this compound improves base diversification profile, HEK293T cells were treated with AID or pmCDA1 fused to Cas9 nickase (D10A) in the presence of CRT0044876. After 3 d, the cells were harvested and analyzed through high-throughput sequencing (HTS).

In data set [2] the test system is endogenous loci. Nature of the data set: Transversion mutations from adenine: ABE7.10 with inosine glycosylases (fusion or in trans), HTS in HEK293T cells. To be noted: all conditions that used ABE7.10, 3 days. From the text: The experiment was designed to generate transversion mutations from adenines by promoting inosines to undergo the same cellular DNA repair pathways that generate transversion mutations during translesion-bypass polymerization in cytosine base editing. While not wishing to be bound to any particular theory, it was hypothesized that the key step was to facilitate the glycosylation of inosines generated during adenine base editing. It was hypothesized that once glycosylated, the resulting abasic site can be a substrate for translesion-bypass repair and that this would lead to transversion mutations. Exogenous inosine glycosylases were provided along with ABE to promote inosine glycosylation.
Several inosine glycosylases were screened in HEK293T cells and it was determined whether they were capable of acting on inosines generated by ABE. If inosine is converted into an abasic site, and subsequently repaired through translesion-bypass polymerization, transversion mutations can be generated from adenines.
Five different glycosylases from various species were selected for testing. The following genes were codon-optimized and cloned into a mammalian expression vector, either as unfused gene, or as a C-terminal fusion to ABE7.10 (species source in parenthesis); hMPG (Homo sapiens) having an amino acid sequence of SEQ ID NO:84, mMPG (Mus musculus) having an amino acid sequence of SEQ ID NO:83, rMPG (Rattus norvegicus) having an amino acid sequence of SEQ ID NO:80, SpThp1 (Schizosaccharomyces pombe) having an amino acid sequence of SEQ ID NO:79, MaHDG (Methanosarcina acetivorans) having an amino acid sequence of SEQ ID NO:81, and MbHDG (Methanosarcina barkeri) having an amino acid sequence of SEQ ID NO:82. […] The HEK293T cells were transfected with a plasmid encoding gRNA targeting endogenous loci and either the fusion plasmid or a mixture of plasmids expressing ABE7.10 and the above inosine glycosylases. After 3 days, high-throughput sequencing was used to determine the editing result of targeted adenines. Mock transfection (using pUC19) was used to set baseline editing. All conditions that used ABE7.10 generated 10-20% guanine transition, as expected.

For data set [3], the system named is FANCF genomic site. The experiment in a line: Adenine base editing with inosine glycosylases, FANCF site (FIGS. 8A-8C). To be noted: all conditions that used ABE. The source says: FIGS. 8A-8C are graphs showing adenine base editing results for a FANCF genomic site. Adenines in the target window were diversified into cytosine and thymine. All conditions that used ABE generated ˜10-20% guanine mutation, as expected. FIG. 8A is a graph providing the results for inosine glycosylase for fusion constructs. FIG. 8B is a graph providing the results for inosine glycosylases provided in trans and overexpressed in the cell. […] is a graph showing the amount of indels generated by the constructs.
(§1) Five different glycosylases from various species were selected for testing. The following genes were codon-optimized and cloned into a mammalian expression vector, either as unfused gene, or as a C-terminal fusion to ABE7.10 (species source in parenthesis); hMPG (Homo sapiens) having an amino acid sequence of SEQ ID NO:84, mMPG (Mus musculus) having an amino acid sequence of SEQ ID NO:83, rMPG (Rattus norvegicus) having an amino acid sequence of SEQ ID NO:80, SpThp1 (Schizosaccharomyces pombe) having an amino acid sequence of SEQ ID NO:79, MaHDG (Methanosarcina acetivorans) having an amino acid sequence of SEQ ID NO:81, and MbHDG (Methanosarcina barkeri) having an amino acid sequence of SEQ ID NO:82. […]

Data set [4] has as its system HEK2 genomic site. Nature of the data set: Adenine base editing with inosine glycosylases, HEK2 site (FIGS. 7A-7C). As to conditions: all conditions that used ABE.
Source text: FIGS. 7A-7C are graphs showing adenine base editing results for a HEK2 genomic site. Adenines in the target window were diversified into cytosine and thymine. All conditions that used ABE generated ˜10-20% guanine mutation, as expected. FIG. 7A is a graph providing the results for inosine glycosylase fusion constructs. FIG. 7B is a graph providing the results for inosine glycosylases provided in trans and overexpressed in the cell. FIG. 7C is a graph showing the amount of indels generated by the constructs.
as §1

Data set [5] concerns Sites 1-4 (SEQ ID NO:131-134). Nature of the data set: Fusion architecture for adenine diversifiers (ABE8.20m N- or C-terminal glycosylase fusions), HTS in HEK293T cells. As to conditions: four guide RNAs, 3 days, FIG. 9. The method, then: Several glycosylase domains were fused to either the N-terminus or C-terminus of ABE8.20m (SEQ ID NO:57). For the N-terminal fusions to ABE8.20m, the deaminase was between the glycosylase domain and CRISPR-Cas effector protein, and, for the C-terminal fusions to ABE8.20m, the CRISPR-Cas effector protein was between the glycosylase domain and deaminase. Three putative inosine glycosylases were tested, which are: hMPG, a methylpurine glycosylase (MPG) from Homo sapiens (SEQ ID NO:84, UniProtKB—P29372); mMPG from Mus musculus (SEQ ID NO:83, UniProtKB—Q04841); and SpThp1, a known uracil DNA glycosylase that also has activity towards inosine, from Schizosaccharomyces pombe (SEQ ID NO:79, UniProtKB—O59825) (Alseth et al. Nucleic Acids Research 2005, 33(3) 1123-1131).
The following plasmids were transfected into HEK293T cells: a plasmid encoding ABE8.20m or a fusion protein including ABE8.20m fused to one of the above inosine glycosylases, and a plasmid encoding a guide RNA. […] Four guide RNAs were tested corresponding to the following four target nucleic acids (i.e., sites): Site 1: […] (SEQ ID NO:131), Site 2: […] (SEQ ID NO:132), Site 3: […] (SEQ ID NO:133), and Site 4: […] (SEQ ID NO:134). After three days, the editing efficiency was measured by high throughput sequencing of targeted loci.

In data set [6] the test system is several genomic sites in HEK293T cells (target nucleic acid of SEQ ID NO:132). Nature of the data set: Deaminase screen for base diversification, MCP-deaminase recruited to Cas9 nickase (D10A), HTS in HEK293T cells. As to conditions: MCP fusion recruited to Cas9 nickase (D10A) by 2xMS2 gRNA, no UGI, FIG. 4. The method, then: They were fused to MCP (MS2 […]) at the N-terminus, and recruited towards Cas9 nickase (D10A) by using gRNA fused to 2×MS2 hairpins. They were assayed against several genomic sites in HEK293T cells. Base conversion profiles were analyzed by high-throughput sequencing and the results are shown in FIG. 4 for the target nucleic acid of SEQ ID NO:132.
AP endonuclease I (APE1) is an enzyme within the base excision repair pathway that cleaves the phosphodiester bond at the abasic site, generating a nick in the base-edited strand. […] In constructs lacking UGI, base diversification is usually accompanied with indels. For example, in all target sites described above, about 5-20% of products contain indels, which lowers the efficiency of base diversification (FIG. 5).

For data set [7], the system named is spacer sequence corresponding to SEQ ID NO:131. Nature of the data set: SunTag recruitment system for adenine base diversifier / reduced Cas9 binding affinity, HTS in HEK293T cells. As to conditions: scFv-TadA8.20m-GB1 or scFv-TadA8e-GB1, glycosylase overexpressed in trans, FIGS. 10 and 11. From the text: Different forms of Cas9 were expressed in HEK293T cells, which were: nCas9(D10A) (SEQ ID NO:36), dCas9-SunTag (SEQ ID NO:135), nCas9(D10A)-SunTag (SEQ ID NO:136), and enCas9(D10A)-SunTag (SEQ ID NO:137), along with a SunTag-antibody-fused adenine deaminase, with a GB1 solubility tag at the C-terminus, having a sequence of SEQ ID NO:138 or SEQ ID NO:139. An inosine glycosylase, which was hMPG (SEQ ID NO:84), mMPG (SEQ ID NO:83), or SpThp1 (SEQ ID NO:79) was overexpressed in trans. The glycosylase was not actively recruited, but was expressed in the cell at the same time as the Cas9 and deaminase.
In an attempt to reduce the Cas9 DNA binding affinity to a target nucleic acid, Cas9 having mutated amino acid residues that may interact with the target nucleic acid were used. Without being limited to any particular theory, the thought was that this would facilitate the dissociation of Cas9 from the target nucleic acid once adenine is converted to inosine; thus, providing greater access for inosine glycosylase. Specifically, enCas9(D10A) (SEQ ID NO:39) contains two mutations that reduce DNA binding affinity compared to nCas9(D10A) (Halperin et al. Nature 2018 560(7717):248-252). The effect of the mutations in the context of SunTag-mediated adenine diversification were tested. […]
After three days, the editing efficiency was measured by high throughput sequencing of targeted loci. […]

Data set [8] relates to Sites 1-4 (SEQ ID NO:131-134). Nature of the data set: Truncation of inosine glycosylase regulatory domain, hMPG vs thMPG fusions to ABE8.20m. As to conditions: N- and C-terminus fusions to ABE8.20m, four sites, FIG. 12. From the text: Methylpurine glycosylase (MPG) usually contains two domains. The catalytic domain of MPG is necessary for excising inosine from DNA (Hollis, Lau, Ellenberger. Mutation Research 2000, 460, 201-210). Without being bound to any particular theory, in an effort to reduce the size of MPG, potentially allow for better inosine access to the catalytic domain, and potentially improve the solubility of the fusion complex, the N-terminus of MPG was truncated.
In this experiment, both N-terminus and C-terminus fusions of hMPG to ABE8.20m (SEQ ID NO:57) were tested with a truncated variant of hMPG (thMPG) (SEQ ID NO:85). Four different target nucleic acids were tested, which were: Site 1: […] (SEQ ID NO:131), Site 2: […] (SEQ ID NO:132), Site 3: […] (SEQ ID NO:133), and Site 4: […] (SEQ ID NO:134).

“Also recorded” adds a separate entry of the source.

T1 sequence (P27695 whole entry): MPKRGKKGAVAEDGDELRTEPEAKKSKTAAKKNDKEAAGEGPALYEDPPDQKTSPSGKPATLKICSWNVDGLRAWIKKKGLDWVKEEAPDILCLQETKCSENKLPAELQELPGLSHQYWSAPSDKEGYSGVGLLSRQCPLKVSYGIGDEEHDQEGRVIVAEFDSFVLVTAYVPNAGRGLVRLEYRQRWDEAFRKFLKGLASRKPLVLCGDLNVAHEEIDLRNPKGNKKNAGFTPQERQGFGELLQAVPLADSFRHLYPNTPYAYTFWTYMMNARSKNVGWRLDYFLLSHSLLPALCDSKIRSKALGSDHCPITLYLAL

Take `O=C(O)c1cc2cccc([N+](=O)[O-])c2[nH]1` [CRT0044876]: in data set [1] (FIGS. 6A and 6C), the base diversification rate result is “some decrease in base diversification rate was also observed”. In data set [1] (multiple target sites, FIGS. 6B and 6D), the “amount of indel generated” value is “significant decrease in the amount of indel generated across multiple target sites; also recorded: reduces the rate of indel mutations”.
For “ABE7.10: adenine base editor, unfused ABE7.10 having amino acid sequence of SEQ ID NO:55”, in data set [2], the “guanine transition of targeted adenines” value is given as 10-20%. The guanine mutation in data set [3] and in data set [4] was 10-20% each time.
As to “ABE8.20m: adenine base editor, SEQ ID NO:57, without glycosylase domain”, in data set [5], the “A to C or T change of target adenine” value is recorded as “negligible A to C or T change”.
For the molecule “APOBEC3A: cytosine deaminase fused to MCP, recruited towards Cas9 nickase (D10A) by gRNA with 2×MS2 hairpins”, in data set [6], the “conversion of C into G, T, and A within the base editing window” value was “robustly converts C into G, T, and A nucleotides within the base editing window”.
On to “nCas9(D10A)-SunTag: Cas9 nickase (D10A) fused to SunTag, SEQ ID NO:136”, for which the “A to C or T editing” value in data set [7] was “increase in A to C or T editing compared to expression of nCas9(D10A) without SunTag”.

B1: thMPG: truncated variant of hMPG, SEQ ID NO:85, fused to ABE8.20m (protein, listed as Homo sapiens)
chain: KGHLTRLGLEFFDQPAVPLARAFLGQVLVRRLPNGTELRGRIVETEAYLGPEDEAAHSRGGRQTPRNRGMFMKPGTLYVYIIYGMYFCMNISSQGDGACVLLRALEPLEGLETMRQLRSTLRKGTASRVLKDRELCSGPSKLCQALAINKSFDQRDLAQDEAVWLERGPLEPSEPAVVAAARVGVGHAGEWARKPLRFYVRGSPWVSVVDRVAEQDTQA
On to B1, for which, in data set [8], the “adenine conversion to C or T activity, truncated vs full-length MPG” value is on record as “no observed decrease in activity and, in some cases, there was an observed increase in adenine conversion to C or T”.

B2: APOBEC1: cytosine deaminase fused to MCP, recruited towards Cas9 nickase (D10A) by gRNA with 2×MS2 hairpins (protein, listed as Rattus norvegicus)
chain: SSETGPVAVDPTLRRRIEPHEFEVFFDPRELRKETCLLYEINWGGRHSIWRHTSQNTNKHVEVNFIEKFTTERYFCPNTRCSITWFLSWSPCGECSRAITEFLSRYPHVTLFIYIARLYHHADPRNRQGLRDLISSGVTIQIMTEQESGYCWRNFVNYSPSNEAHWPRYPHLWVRLYVLELYCIILGLPPCLNILRRKQPQLTFFTIALQSCHYQRLPPHILWATGLK
In the case of B2, the “conversion of C into G, T, and A within the base editing window” value in data set [6] is “robustly converts C into G, T, and A nucleotides within the base editing window”.
